Entries after “also recorded” stand apart in the source; their conditions may differ. Positions of bridges follow the written chain, without caps; N, C: chain ends. Residues, ends and D or L forms follow the SMILES beside them.
Tests used:
AeCNMaR-1b (AAEL018316) = AeCNMaR-1b (AAEL018316) (Aedes aegypti, UniProt A0A1S4G7J8); assay: Receptor activation, aequorin luminescence in CHO-K1 aeq cells expressing AeCNMaR-1b; type: cell-based
Description: The CNMa peptide was synthesized and HPLC purified (>90% purity) by Royobiotechs (Shanghai, China) based on the published sequence of the AeCNMa peptide sequence. Both the amidated (YMSLCHFKLCNMa) and the non-amidated (YMSLCHFKLCNM) were produced with a disulfide bridge between cysteines 5 and 10. The complete coding sequence of the two putative Ae. aegypti CNMa receptors (VectorBase genes AAEL024199 and AAEL018316, which we henceforth refer to as AeCNMaR-1a and AeCNMaR-1b, respectively) were commercially synthesized (Integrated DNA Technologies) and subsequently subcloned into a pcDNA3.1+ mammalian expression vector [24]. A Chinese hamster ovary cell line stably expressing the calcium-dependent bioluminescent protein aequorin (CHO-K1 aeq) was grown in Dulbecco’s modified eagles medium: nutrient F12 (DMEM:F12) media containing 10% heat-inactivated fetal bovine serum (FBS; Wisent, St. Bruno, QC, Canada), 200 μg/mL geneticin, and an antimycotic-antibiotic mixture as described previously. […]
Other Ae. aegypti peptides used in this study included “capability” (CAPA)-1 (GPTVGLFAFPRV-NH2), CAPA-2 (pQGLVPFPRV-NH2), AedaeCAPA-pyrokinin (PK) 1 (AGNSGANSGMWFGPRL-NH2), adipokinetic/corazonin-like peptide (ACP; pQVTFSRDWNA-NH2), adipokinetic hormone (AKH) (pQLTFTPSW-NH2), and corazonin (CRZ; pQTFQYSRGWTN-NH2). […] Single concentrations of the various peptides were loaded into individual wells of white 96-well luminescence plates (Greiner Bio-One, Frickenhausen, Germany) with each peptide concentration tested in quadruplicate. CHO-K1 aeq cells expressing either of the two AeCNMa receptors or mCherry were prepared for the functional assay, as described above, and injected into each well of the 96-well luminescence plates by an automated injector unit integrated with the Synergy 2 Multi-Mode Microplate Reader (BioTek, Winooski, VT, USA). The kinetic luminescent response was measured for 10 s immediately following the application of the cells into the wells containing the different peptide treatments or the negative (i.e., BSA media alone) or positive (i.e., 50 μM ATP) controls as described previously. Data was assembled in Microsoft Excel and then analyzed in GraphPad Prism 7.02 (GraphPad Software, San Diego, CA, USA) where the dose–response curves from multiple biological replicates were used to determine the half maximal effective concentrations (EC50).

[1] = test system: JH-responsive gene kruppel-homolog 1 (kh-1); assay: kh-1 transcript abundance (qPCR) after injection into females; type: in vivo, Aedes aegypti; conditions: CNMa or saline injected females
Procedure: (§1) Cohorts of female Ae. aegypti were sampled 8 to 10 days post-eclosion, pre-blood meal (NBF), then at 2, 4, 6, 8, 12, 24, 48, and 72 h PBM. Four or more females from each timepoint were dissected in cold, RNase-free PBS into head, midgut, ovaries, and abdominal body wall and fat body (“pelt”). Tissue samples were immediately frozen and stored at −80 °C. Tissues were thawed on ice, homogenized with a rotor type pestle, and then total RNA was extracted using the RNeasy Mini kit (Qiagen, Venlo, The Netherlands) according to the manufacturer’s instructions. RNA was treated with DNase using the Turbo DNA-free kit (Ambion, Austin, TX, USA). cDNA was synthesized from 100 ng of RNA with the iScript cDNA synthesis kit (BioRad, Hercules, CA, USA) and used as template in qPCR using the Quantifast SYBR Green PCR kit (Qiagen). The primers for each product are listed in Table S1. qPCR was performed on the Qiagen Rotorgene as described in [28]. Absolute standard curves were produced by cloning each qPCR product into the pSCA vector using the Strataclone PCR cloning kit (Agilent, Santa Clara, CA, USA) and preparing plasmid standards of a known copy number. For comparisons between mating status, the copy number of each target was normalized to the copy number of ribosomal protein S7.
(§2) For e74, expression is relative to e74 expression in AS-treated insects.

Ae. aegypti females = assay: Egg laying after injection into mated, blood-fed females; type: in vivo, Aedes aegypti
Procedure: (§3) Three- to five-day-old mated females were blood-fed as detailed above, and groups were injected with a range of CNMa in 0.5 μL of saline or saline alone (AS) for a control. Females were allowed to recover and then housed individually in mesh cages. At 3 d PBM, a wet paper towel was provided to the females to facilitate egg laying for up to 48 h and then the number of eggs was counted. To assess possible interactions of CNMa with OEH and ILP3, mated females were blood-fed then decapitated and injected at 1 h PBM with 150 pmol of CNMa, OEH, or ILP3, or combinations of each hormone. Ovaries were dissected at 24 h PBM and yolk deposition was measured along the anterior–posterior axis for five oocytes from each individual, using an ocular micrometer fitted to a dissecting microscope. For CNMa and JH experiments, pupae were isolated in eclosion chambers for 6 h and females were collected. Females were divided into two groups, one which was immediately injected with 150 pmol of CNMa or saline. The other half of the cohort was held for an additional 8 h then injected with the same solutions. At 3 d post-eclosion, females were blood-fed and oviposition was measured for all treatment groups.
Figure 5 AeCNMa reduces egg clutch size in mated Ae. aegypti females. […] After three days females were allowed to oviposit and eggs were counted 48 h later. […]

[2] = test system: ecdysteroid-responsive gene e74; assay: e74 transcript abundance (qPCR) after injection into females; type: in vivo, Aedes aegypti; conditions: CNMa or saline injected females, qPCR relative to AS-treated, MANOVA e74: F3,19 = 0.8192, p = 0.50
Procedure: as §1, §2

[3] = test system: CHO K1 aeq mCherry-expressing cells; assay: Negative control: luminescence in CHO-K1 aeq cells expressing mCherry; type: cell-based, Chinese hamster; conditions: 1 µM peptide; CHO K1 aeq cells transfected with pcDNA3.1+ mCherry
Description: The CNMa peptide was synthesized and HPLC purified (>90% purity) by Royobiotechs (Shanghai, China) based on the published sequence of the AeCNMa peptide sequence. Both the amidated (YMSLCHFKLCNMa) and the non-amidated (YMSLCHFKLCNM) were produced with a disulfide bridge between cysteines 5 and 10. The complete coding sequence of the two putative Ae. aegypti CNMa receptors (VectorBase genes AAEL024199 and AAEL018316, which we henceforth refer to as AeCNMaR-1a and AeCNMaR-1b, respectively) were commercially synthesized (Integrated DNA Technologies) and subsequently subcloned into a pcDNA3.1+ mammalian expression vector [24]. […]
Other Ae. aegypti peptides used in this study included “capability” (CAPA)-1 (GPTVGLFAFPRV-NH2), CAPA-2 (pQGLVPFPRV-NH2), AedaeCAPA-pyrokinin (PK) 1 (AGNSGANSGMWFGPRL-NH2), adipokinetic/corazonin-like peptide (ACP; pQVTFSRDWNA-NH2), adipokinetic hormone (AKH) (pQLTFTPSW-NH2), and corazonin (CRZ; pQTFQYSRGWTN-NH2). […] Single concentrations of the various peptides were loaded into individual wells of white 96-well luminescence plates (Greiner Bio-One, Frickenhausen, Germany) with each peptide concentration tested in quadruplicate. […]

[4] = test system: Ae. aegypti females (decapitated); assay: Yolk deposition in blood-fed decapitated females; type: in vivo, Aedes aegypti
Procedure: as §3
Average amount of yolk per oocyte in mated, blood fed, decapitated females injected with combinations of CNMa (150 pmol), ILP3 (20 pmol), and OEH (20 pmol), Aedes saline (AS), or not injected (intact or decapitation only) at one-hour post blood meal. Error bars show one standard error above and below the mean.

AeCNMaR-1a (AAEL024199) = AeCNMaR-1a (AAEL024199) (Aedes aegypti, UniProt A0A6I8U3V2); assay: Receptor activation, aequorin luminescence in CHO-K1 aeq cells expressing AeCNMaR-1a; type: cell-based
Description: The CNMa peptide was synthesized and HPLC purified (>90% purity) by Royobiotechs (Shanghai, China) based on the published sequence of the AeCNMa peptide sequence. Both the amidated (YMSLCHFKLCNMa) and the non-amidated (YMSLCHFKLCNM) were produced with a disulfide bridge between cysteines 5 and 10. The complete coding sequence of the two putative Ae. aegypti CNMa receptors (VectorBase genes AAEL024199 and AAEL018316, which we henceforth refer to as AeCNMaR-1a and AeCNMaR-1b, respectively) were commercially synthesized (Integrated DNA Technologies) and subsequently subcloned into a pcDNA3.1+ mammalian expression vector [24]. A Chinese hamster ovary cell line stably expressing the calcium-dependent bioluminescent protein aequorin (CHO-K1 aeq) was grown in Dulbecco’s modified eagles medium: nutrient F12 (DMEM:F12) media containing 10% heat-inactivated fetal bovine serum (FBS; Wisent, St. Bruno, QC, Canada), 200 μg/mL geneticin, and an antimycotic-antibiotic mixture as described previously. When cells reached 80–90% confluency, they were transfected using Lipofectamine 3000 transfection reagent following manufacturer recommendations (Life Technologies, Burlington, ON, Canada) to transiently express a mammalian construct in pcDNA3.1+ containing either of the two candidate CNMa receptors or mCherry (pcDNA3.1+ mCherry was a gift from Scott Gradia, Addgene plasmid #30125), the latter of which served as a negative control for the receptor functional assay. After 48 h following transfection, CHO-K1 aeq cells were harvested by dislodging from culture flasks using Dulbecco’s PBS containing EDTA and subsequently resuspended in receptor assay media.
Other Ae. aegypti peptides used in this study included “capability” (CAPA)-1 (GPTVGLFAFPRV-NH2), CAPA-2 (pQGLVPFPRV-NH2), AedaeCAPA-pyrokinin (PK) 1 (AGNSGANSGMWFGPRL-NH2), adipokinetic/corazonin-like peptide (ACP; pQVTFSRDWNA-NH2), adipokinetic hormone (AKH) (pQLTFTPSW-NH2), and corazonin (CRZ; pQTFQYSRGWTN-NH2). Serial dilutions of the peptide stocks were prepared in bovine serum albumin (BSA) assay media (DMEM:F12 media + 0.1% BSA + 1× antibiotic-antimycotic) to test concentrations ranging from 10 pM to 50 μM. Single concentrations of the various peptides were loaded into individual wells of white 96-well luminescence plates (Greiner Bio-One, Frickenhausen, Germany) with each peptide concentration tested in quadruplicate. CHO-K1 aeq cells expressing either of the two AeCNMa receptors or mCherry were prepared for the functional assay, as described above, and injected into each well of the 96-well luminescence plates by an automated injector unit integrated with the Synergy 2 Multi-Mode Microplate Reader (BioTek, Winooski, VT, USA). The kinetic luminescent response was measured for 10 s immediately following the application of the cells into the wells containing the different peptide treatments or the negative (i.e., BSA media alone) or positive (i.e., 50 μM ATP) controls as described previously. Data was assembled in Microsoft Excel and then analyzed in GraphPad Prism 7.02 (GraphPad Software, San Diego, CA, USA) where the dose–response curves from multiple biological replicates were used to determine the half maximal effective concentrations (EC50).

AeCNMaR-1b (AAEL018316), sequence (A0A1S4G7J8 entry or part of it): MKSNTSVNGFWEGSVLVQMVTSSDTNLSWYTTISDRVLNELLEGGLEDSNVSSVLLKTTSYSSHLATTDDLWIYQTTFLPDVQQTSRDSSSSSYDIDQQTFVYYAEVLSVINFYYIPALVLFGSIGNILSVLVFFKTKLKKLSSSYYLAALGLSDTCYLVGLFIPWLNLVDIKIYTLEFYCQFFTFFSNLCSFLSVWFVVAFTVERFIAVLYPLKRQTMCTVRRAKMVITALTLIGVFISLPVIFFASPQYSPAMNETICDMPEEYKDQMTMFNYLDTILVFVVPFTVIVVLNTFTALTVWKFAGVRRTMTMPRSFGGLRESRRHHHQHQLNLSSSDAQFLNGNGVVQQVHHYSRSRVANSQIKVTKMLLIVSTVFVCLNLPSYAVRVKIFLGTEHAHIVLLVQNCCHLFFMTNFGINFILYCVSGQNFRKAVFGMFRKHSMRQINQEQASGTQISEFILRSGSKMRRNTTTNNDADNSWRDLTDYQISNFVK
AeCNMaR-1a (AAEL024199), sequence (A0A6I8U3V2 entry or part of it): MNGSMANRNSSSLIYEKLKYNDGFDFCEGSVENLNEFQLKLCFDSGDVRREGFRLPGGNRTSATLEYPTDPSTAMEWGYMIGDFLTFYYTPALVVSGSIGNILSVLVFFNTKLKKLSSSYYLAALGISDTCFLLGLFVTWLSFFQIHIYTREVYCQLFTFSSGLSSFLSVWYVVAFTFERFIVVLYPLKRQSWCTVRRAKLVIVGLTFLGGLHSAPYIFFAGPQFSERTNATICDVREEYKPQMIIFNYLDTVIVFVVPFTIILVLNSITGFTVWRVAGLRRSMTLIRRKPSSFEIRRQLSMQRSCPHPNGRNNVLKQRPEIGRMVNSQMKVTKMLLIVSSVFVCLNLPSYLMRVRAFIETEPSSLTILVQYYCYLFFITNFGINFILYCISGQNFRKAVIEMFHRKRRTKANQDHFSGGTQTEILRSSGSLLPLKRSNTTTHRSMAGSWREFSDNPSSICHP

| Compound | greater sensitivity for the amidated peptide (AeCNMaR-1b (AAEL018316); AeCNMaR-1b, amidated AeCNMa vs non-amidated AeCNM) | luminescent response vs BSA media background (AeCNMaR-1b (AAEL018316); AeCNMaR-1b, peptides tested at 1 µM, raw luminescence, one-way ANOVA and Dunnett's test) | kh-1 expression vs saline ([1]; MANOVA kh-1: F1,20 = 0.5141, p = 0.68) | kh-1 expression vs saline ([1]; MANOVA kh-1: F1,20 = 0.5141, p = 0.68, listed as CNMa) | number of eggs laid vs controls (Ae. aegypti females; 150 pmol injected immediately post blood meal, mated, eggs counted after 3 d + 48 h oviposition, control Aedes saline (AS)) | optimal dose (dose-response assay) (Ae. aegypti females; injection into mated) | e74 expression vs saline [2] | e74 expression vs saline ([2]; listed as CNMa) | luminescence in mCherry-expressing control cells [3] | yolk uptake, CNMa only ([4]; CNMa 150 pmol at 1 h post blood meal, decapitated females, vs decapitated only and AS control, Tukey's HSD) | yolk uptake, CNMa and ILP3 ([4]; CNMa 150 pmol, ILP3 20 pmol at 1 h post blood meal, vs ILP3 only and ILP3 and OEH, Tukey's HSD) | yolk uptake, CNMa + OEH + ILP3 ([4]; CNMa 150 pmol, ILP3 20 pmol, OEH 20 pmol at 1 h post blood meal, vs ILP3 + OEH injected females, Tukey's HSD) | yolk uptake, OEH + CNMa ([4]; CNMa 150 pmol, OEH 20 pmol at 1 h post blood meal, vs OEH only or OEH + ILP3, Tukey's HSD) | effect on yolk deposition elicited by OEH, ILP3, or both peptides together ([4]; decapitated blood-fed females, co-injection) | lower concentration activating AeCNMaR-1a than AeCNMaR-1b (AeCNMaR-1a (AAEL024199); AeCNMaR-1a vs AeCNMaR-1b) | increase in sensitivity for the amidated peptide (AeCNMaR-1a (AAEL024199); AeCNMaR-1a, amidated AeCNMa vs non-amidated AeCNM) | luminescent response vs BSA media background (AeCNMaR-1a (AAEL024199); AeCNMaR-1a, peptides tested at 1 µM, raw luminescence, one-way ANOVA and Dunnett's test) | EC50 (AeCNMaR-1b (AAEL018316)) | EC50 (AeCNMaR-1a (AAEL024199)) |
| --- | --- | --- | --- | --- | --- | --- | --- | --- | --- | --- | --- | --- | --- | --- | --- | --- | --- | --- | --- |
| YMSLCHFKLCNMa (disulfide) [AeCNMa, Ae. aegypti CNMa peptide, amidated, HPLC purified (>90% purity)] | 2.4 fold | significant response several orders of magnitude over the BSA media background luminescent response | no significant difference in their expression | did not significantly impact expression | laid significantly fewer eggs than controls; also recorded: produced significantly fewer eggs than controls (p = 0.0087, Wilcoxon rank-sum test) | 150 pmol | no significant difference in their expression | did not significantly impact expression | No luminescence was detected | not significantly different from decapitated only and AS control treatments | no significant difference in yolk uptake | no significant difference in yolk uptake | no significant difference in yolk uptake relative to OEH only or OEH + ILP3 treatments | did not affect yolk deposition elicited by OEH, ILP3, or both peptides together | ~ 10 fold | 9 fold | significant response several orders of magnitude over the BSA media background luminescent response |  |  |
| CSCC[C@H](NC(=O)[C@H](CC(N)=O)NC(=O)[C@@H]1CSSC[C@H](NC(=O)[C@H](CC(C)C)NC(=O)[C@H](CO)NC(=O)[C@H](CCSC)NC(=O)[C@@H](N)Cc2ccc(O)cc2)C(=O)N[C@@H](Cc2c[nH]cn2)C(=O)N[C@@H](Cc2ccccc2)C(=O)N[C@@H](CCCCN)C(=O)N[C@@H](CC(C)C)C(=O)N1)C(=O)O [AeCNM, YMSLCHFKLCNM] (H-YMSLCHFKLCNM-OH; disulfide 5-10) |  |  |  |  |  |  |  |  |  |  |  |  |  |  |  |  |  | 125 nM | 46.3 nM |

— article PMC8955854, “The Peptide Hormone CNMa Influences Egg Production in the Mosquito Aedes aegypti” (Insects, 2022)
